This note sets out measurements from US20220177538A1, “CO-AGONISTS AT GLP-1 AND GIP RECEPTORS SUITABLE FOR ORAL DELIVERY” (Novo Nordisk A/S, priority 2020, published 2022).

As usually defined, the EC50 is the midpoint of the concentration-response curve.

Read-outs that look alike come from different tables or passages of the source. Starred links: 1 amine or outer side, 2 acyl side, 3 side chain; linkers in the order of their positions; H or OH if unused. Non-standard residues stand in square brackets, D forms with d. Residues, ends and D or L forms follow the SMILES beside them. Groups on a side chain read outwards from the residue. *: point of attachment. C18 diacid = O=C(O)CCCCCCCCCCCCCCCCC(=O)*; γGlu = O=C(O)[C@H](CCC(=O)[*:2])N[*:1]; εLys = N[C@@H](CCCCN[*:1])C(=O)[*:2]; Aib = CC(C)(N)C(=O)O

Experiment [1] has as its target T1, human GIP receptor (Homo sapiens, UniProt P48546).
T1 construct: expressed in transfected cells; host or cells: BHK (parent line BHKTS13), clone BHK CRE luc2P hGIPR
T1 sequence (P48546 22-466): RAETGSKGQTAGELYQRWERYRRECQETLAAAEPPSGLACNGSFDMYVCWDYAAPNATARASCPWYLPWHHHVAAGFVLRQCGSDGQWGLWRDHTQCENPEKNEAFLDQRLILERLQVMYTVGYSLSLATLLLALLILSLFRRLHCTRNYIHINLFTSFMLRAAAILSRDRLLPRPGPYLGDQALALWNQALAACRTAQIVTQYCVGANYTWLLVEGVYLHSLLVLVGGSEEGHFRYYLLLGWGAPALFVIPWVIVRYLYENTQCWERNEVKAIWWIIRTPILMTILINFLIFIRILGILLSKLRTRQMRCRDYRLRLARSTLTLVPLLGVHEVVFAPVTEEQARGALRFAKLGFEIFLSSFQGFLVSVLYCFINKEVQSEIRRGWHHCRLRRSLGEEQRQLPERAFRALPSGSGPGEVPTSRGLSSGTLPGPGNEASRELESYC
Briefly: In vitro functional potency, CRE luciferase reporter, whole BHK cells (hGIPR). The class given is cell-based. As to conditions: BHK CRE luc2P hGIPR cells. In a few lines:
(§1)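 BHK CRE luc2P cells stably expressing hGIPR or hGLP-1R were seeded at 5000 cells/well overnight. They were treated 3 h at 37° C with a 12-point, 3.5-fold compound series in buffer with or without HSA, and luciferase luminescence was read. Values come from log(agonist)-response regression, averaging at least two replicates.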
(Reporter assays use an easily measured gene product as a stand-in for the process of interest.)

For experiment [2], the target named is human GLP-1 receptor (Homo sapiens, UniProt P43220). Briefly: In vitro functional potency, CRE luciferase reporter, whole BHK cells (hGLP-1R). As to conditions: BHK CRE luc2P hGLP-1R cells. The class given is cell-based. Set-up: expressed in transfected cells; host or cells: BHK (parent line BHKTS13), clone BHK CRE luc2P hGLP-1R. In a few lines:
as §1

The mark [3] stands for this setting: 0% HSA, read-out: hGIPR, CRE Luc 0% HSA EC50.
Where [4] appears, read: hGIPR, CRE Luc 1% HSA EC50, 1% HSA.
The mark [5] stands for this setting: 0% HSA, read-out: hGLP-1R, CRE Luc 0% HSA EC50.
Setting [6] is: hGLP-1R, CRE Luc 1% HSA EC50, 1% HSA.

human GLP-1 receptor, sequence (P43220 24-463): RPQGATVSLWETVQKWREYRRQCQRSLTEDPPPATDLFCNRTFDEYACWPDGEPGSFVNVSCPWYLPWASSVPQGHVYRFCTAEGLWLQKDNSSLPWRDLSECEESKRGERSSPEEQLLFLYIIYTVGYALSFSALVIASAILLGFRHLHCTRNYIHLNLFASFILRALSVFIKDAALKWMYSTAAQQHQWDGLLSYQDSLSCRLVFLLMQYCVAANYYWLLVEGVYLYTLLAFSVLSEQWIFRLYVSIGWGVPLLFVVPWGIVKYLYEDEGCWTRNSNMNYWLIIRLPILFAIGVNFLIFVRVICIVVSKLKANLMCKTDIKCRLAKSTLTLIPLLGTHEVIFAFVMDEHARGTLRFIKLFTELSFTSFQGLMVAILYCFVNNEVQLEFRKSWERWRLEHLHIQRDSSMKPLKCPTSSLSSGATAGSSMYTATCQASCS

Regarding `CC[C@H](C)[C@H](NC(=O)[C@H](Cc1ccccc1)NC(=O)[C@H](CCC(=O)O)NC(=O)[C@H](CCCNC(=N)N)NC(=O)[C@H](C)NC(=O)[C@H](C)NC(=O)[C@H](CCC(N)=O)NC(=O)[C@H](CCC(=O)O)NC(=O)[C@H](CCC(=O)O)NC(=O)[C@H](CC(C)C)NC(=O)[C@H](Cc1ccc(O)cc1)NC(=O)[C@H](CCCCNC(=O)[C@@H](N)CCCCNC(=O)[C@@H](N)CCCCNC(=O)CC[C@H](NC(=O)CCCCCCCCCCCCCCCCC(=O)O)C(=O)O)NC(=O)[C@H](CO)NC(=O)[C@H](Cc1ccc(O)cc1)NC(=O)[C@H](CC(=O)O)NC(=O)[C@H](CO)NC(=O)[C@@H](NC(=O)[C@H](Cc1ccccc1)NC(=O)[C@@H](NC(=O)CNC(=O)[C@H](CCC(=O)O)NC(=O)C(C)(C)NC(=O)[C@@H](N)Cc1ccc(O)cc1)[C@@H](C)O)[C@@H](C)O)C(=O)N[C@@H](CC(N)=O)C(=O)N[C@@H](Cc1c[nH]c2ccccc12)C(=O)N[C@@H](CC(C)C)C(=O)N[C@@H](CC(C)C)C(=O)N[C@@H](C)C(=O)NCC(=O)NCC(=O)N1CCC[C@H]1C(=O)N[C@@H](CO)C(=O)N[C@@H](CO)C(=O)NCC(=O)N[C@@H](C)C(=O)N1CCC[C@H]1C(=O)N1CCC[C@H]1C(=O)N1CCC[C@H]1C(=O)N[C@@H](CO)C(=O)O` [Compound 41], the EC50 in experiment [1] (setting [3]) was determined as 0.0049 nM; in experiment [1] (setting [4]), 0.0793 nM; in experiment [2] (setting [5]), 0.0012 nM; in experiment [2] (setting [6]) it was 0.0314 nM.
Regarding `CC[C@H](C)[C@H](NC(=O)[C@H](Cc1ccccc1)NC(=O)[C@H](CCC(=O)O)NC(=O)[C@H](CCCNC(=N)N)NC(=O)[C@H](C)NC(=O)[C@H](C)NC(=O)[C@H](CCC(N)=O)NC(=O)[C@H](CCC(=O)O)NC(=O)[C@H](CCC(=O)O)NC(=O)[C@H](CC(C)C)NC(=O)[C@H](Cc1ccc(O)cc1)NC(=O)[C@@H](NC(=O)[C@H](CO)NC(=O)[C@H](Cc1ccc(O)cc1)NC(=O)[C@H](CC(=O)O)NC(=O)[C@H](CO)NC(=O)[C@@H](NC(=O)[C@H](Cc1ccccc1)NC(=O)[C@@H](NC(=O)CNC(=O)[C@H](CCC(=O)O)NC(=O)C(C)(C)NC(=O)[C@@H](N)Cc1ccc(O)cc1)[C@@H](C)O)[C@@H](C)O)[C@@H](C)CC)C(=O)N[C@@H](CC(N)=O)C(=O)N[C@@H](Cc1c[nH]c2ccccc12)C(=O)N[C@@H](CC(C)C)C(=O)N[C@@H](CC(C)C)C(=O)N[C@@H](C)C(=O)NCC(=O)NCC(=O)N1CCC[C@H]1C(=O)N[C@@H](CO)C(=O)N[C@@H](CCCCNC(=O)[C@@H](N)CCCCNC(=O)[C@@H](N)CCCCNC(=O)CC[C@H](NC(=O)CCCCCCCCCCCCCCCCC(=O)O)C(=O)O)C(=O)NCC(=O)N[C@@H](C)C(=O)N1CCC[C@H]1C(=O)N1CCC[C@H]1C(=O)N1CCC[C@H]1C(=O)N[C@@H](CO)C(=O)O` [Compound 42] (H-Y[Aib]EGTFTSDYSIYLEEQAAREFINWLLAGGPSK([εLys-εLys-γGlu-C18 diacid])GAPPPS-OH), the 50% effective concentration (EC50) in experiment [1] (setting [3]) was 0.0059 nM; in experiment [1] (setting [4]) it was 0.306 nM; in experiment [2] (setting [5]), 0.0023 nM; in experiment [2] (setting [6]), 0.0835 nM.
Turning to `CC[C@H](C)[C@H](NC(=O)[C@H](Cc1ccccc1)NC(=O)[C@H](CCC(=O)O)NC(=O)[C@H](CCCNC(=N)N)NC(=O)[C@H](C)NC(=O)[C@H](C)NC(=O)[C@H](CCC(N)=O)NC(=O)[C@H](CCC(=O)O)NC(=O)[C@H](CCC(=O)O)NC(=O)[C@H](CC(C)C)NC(=O)[C@H](CC(C)C)NC(=O)[C@@H](NC(=O)[C@H](CO)NC(=O)[C@H](Cc1ccc(O)cc1)NC(=O)[C@H](CC(=O)O)NC(=O)[C@H](CO)NC(=O)[C@@H](NC(=O)[C@H](Cc1ccccc1)NC(=O)[C@@H](NC(=O)CNC(=O)[C@H](CCC(=O)O)NC(=O)C(C)(C)NC(=O)[C@@H](N)Cc1ccc(O)cc1)[C@@H](C)O)[C@@H](C)O)[C@@H](C)CC)C(=O)N[C@@H](CC(N)=O)C(=O)N[C@@H](Cc1c[nH]c2ccccc12)C(=O)N[C@@H](CC(C)C)C(=O)N[C@@H](CC(C)C)C(=O)N[C@@H](C)C(=O)NCC(=O)NCC(=O)N1CCC[C@H]1C(=O)N[C@@H](CO)C(=O)N[C@@H](CCCCNC(=O)[C@@H](N)CCCCNC(=O)[C@@H](N)CCCCNC(=O)CC[C@H](NC(=O)CCCCCCCCCCCCCCCCC(=O)O)C(=O)O)C(=O)NCC(=O)N[C@@H](C)C(=O)N1CCC[C@H]1C(=O)N1CCC[C@H]1C(=O)N1CCC[C@H]1C(=O)N[C@@H](CO)C(=O)O` [Compound 44] (H-Y[Aib]EGTFTSDYSILLEEQAAREFINWLLAGGPSK([εLys-εLys-γGlu-C18 diacid])GAPPPS-OH), the EC50 in experiment [1] (setting [3]) was determined as 0.0057 nM; in experiment [1] (setting [4]), 0.365 nM; in experiment [2] (setting [5]), 0.0042 nM; in experiment [2] (setting [6]), 0.241 nM.
Regarding `CC[C@H](C)[C@H](NC(=O)[C@H](Cc1ccccc1)NC(=O)[C@H](CCCCNC(=O)[C@@H](N)CCCCNC(=O)[C@@H](N)CCCCNC(=O)CC[C@H](NC(=O)CCCCCCCCCCCCCCCCC(=O)O)C(=O)O)NC(=O)[C@H](CCCNC(=N)N)NC(=O)[C@H](C)NC(=O)[C@H](C)NC(=O)[C@H](CCC(N)=O)NC(=O)[C@H](CCC(=O)O)NC(=O)[C@H](CCC(=O)O)NC(=O)[C@H](CC(C)C)NC(=O)[C@H](Cc1ccc(O)cc1)NC(=O)[C@@H](NC(=O)[C@H](CO)NC(=O)[C@H](Cc1ccc(O)cc1)NC(=O)[C@H](CC(=O)O)NC(=O)[C@H](CO)NC(=O)[C@@H](NC(=O)[C@H](Cc1ccccc1)NC(=O)[C@@H](NC(=O)CNC(=O)[C@H](CCC(=O)O)NC(=O)C(C)(C)NC(=O)[C@@H](N)Cc1ccc(O)cc1)[C@@H](C)O)[C@@H](C)O)[C@@H](C)CC)C(=O)N[C@@H](CC(N)=O)C(=O)N[C@@H](Cc1c[nH]c2ccccc12)C(=O)N[C@@H](CC(C)C)C(=O)N[C@@H](CC(C)C)C(=O)N[C@@H](C)C(=O)NCC(=O)NCC(=O)N1CCC[C@H]1C(=O)N[C@@H](CO)C(=O)N[C@@H](CO)C(=O)NCC(=O)N[C@@H](C)C(=O)N1CCC[C@H]1C(=O)N1CCC[C@H]1C(=O)N1CCC[C@H]1C(=O)N[C@@H](CO)C(=O)O` [Compound 37] (H-Y[Aib]EGTFTSDYSIYLEEQAARK([εLys-εLys-γGlu-C18 diacid])FINWLLAGGPSSGAPPPS-OH), the EC50 in experiment [1] (setting [3]) was determined as 0.0112 nM; in experiment [1] (setting [4]) it was 0.298 nM; in experiment [2] (setting [5]), 0.0027 nM; in experiment [2] (setting [6]) it was 0.0946 nM.
In the case of `CC[C@H](C)[C@H](NC(=O)[C@H](Cc1ccccc1)NC(=O)[C@H](CCC(=O)O)NC(=O)[C@H](CCCNC(=N)N)NC(=O)[C@H](C)NC(=O)[C@H](C)NC(=O)[C@H](CCC(N)=O)NC(=O)[C@H](CCCCNC(=O)[C@@H](N)CCCCNC(=O)[C@@H](N)CCCCNC(=O)CC[C@H](NC(=O)CCCCCCCCCCCCCCCCC(=O)O)C(=O)O)NC(=O)[C@H](CCC(=O)O)NC(=O)[C@H](CC(C)C)NC(=O)[C@H](CC(C)C)NC(=O)[C@@H](NC(=O)[C@H](CO)NC(=O)[C@H](Cc1ccc(O)cc1)NC(=O)[C@H](CC(=O)O)NC(=O)[C@H](CO)NC(=O)[C@@H](NC(=O)[C@H](Cc1ccccc1)NC(=O)[C@@H](NC(=O)CNC(=O)[C@H](CCC(=O)O)NC(=O)C(C)(C)NC(=O)[C@@H](N)Cc1ccc(O)cc1)[C@@H](C)O)[C@@H](C)O)[C@@H](C)CC)C(=O)N[C@@H](CC(N)=O)C(=O)N[C@@H](Cc1c[nH]c2ccccc12)C(=O)N[C@@H](CC(C)C)C(=O)N[C@@H](CC(C)C)C(=O)N[C@@H](C)C(=O)NCC(=O)O` [Compound 18] (H-Y[Aib]EGTFTSDYSILLEK([εLys-εLys-γGlu-C18 diacid])QAAREFINWLLAG-OH), the EC50 was 0.0209 nM in experiment [1] (setting [3]), 0.285 nM in experiment [1] (setting [4]), 0.0197 nM in experiment [2] (setting [5]) and 0.226 nM in experiment [2] (setting [6]).
